Data: patent publication US12560588B2, “High-efficiency screening method for RNA-targeting drugs using nanopores” (KOREA RESEARCH INSTITUTE OF BIOSCIENCE AND BIOTECHNOLOGY, priority 2020, dated 2026)

System: ARS mutant (ARS-Mut) with four base mutations (U28G, G42C, U47C and U51C)
Assay type: binding

Nc1ncnc2nc[nH]c12 [adenine]
change versus free ARS-Mut: not much different
td: 0.50 ms
